Results published in publication PMC5101207, “The Oxidosqualene Cyclase from the Oomycete Saprolegnia parasitica Synthesizes Lanosterol as a Single Product” (Frontiers in Microbiology, 2016).

Biological target: T1, SpLASA (Saprolegnia parasitica, UniProt A0A067BWL7)
T1 construct: gene SPRG_11783; full length, 805 residues (2415 bp amplicon from mycelium cDNA), C-terminal His6 tag (pET-DEST42), E. coli BL21 (DE3), about 91 kDa; not the truncated paralogue SpLASB (SPRG_17895, 472 residues)
T1 sequence (A0A067BWL7 1-805): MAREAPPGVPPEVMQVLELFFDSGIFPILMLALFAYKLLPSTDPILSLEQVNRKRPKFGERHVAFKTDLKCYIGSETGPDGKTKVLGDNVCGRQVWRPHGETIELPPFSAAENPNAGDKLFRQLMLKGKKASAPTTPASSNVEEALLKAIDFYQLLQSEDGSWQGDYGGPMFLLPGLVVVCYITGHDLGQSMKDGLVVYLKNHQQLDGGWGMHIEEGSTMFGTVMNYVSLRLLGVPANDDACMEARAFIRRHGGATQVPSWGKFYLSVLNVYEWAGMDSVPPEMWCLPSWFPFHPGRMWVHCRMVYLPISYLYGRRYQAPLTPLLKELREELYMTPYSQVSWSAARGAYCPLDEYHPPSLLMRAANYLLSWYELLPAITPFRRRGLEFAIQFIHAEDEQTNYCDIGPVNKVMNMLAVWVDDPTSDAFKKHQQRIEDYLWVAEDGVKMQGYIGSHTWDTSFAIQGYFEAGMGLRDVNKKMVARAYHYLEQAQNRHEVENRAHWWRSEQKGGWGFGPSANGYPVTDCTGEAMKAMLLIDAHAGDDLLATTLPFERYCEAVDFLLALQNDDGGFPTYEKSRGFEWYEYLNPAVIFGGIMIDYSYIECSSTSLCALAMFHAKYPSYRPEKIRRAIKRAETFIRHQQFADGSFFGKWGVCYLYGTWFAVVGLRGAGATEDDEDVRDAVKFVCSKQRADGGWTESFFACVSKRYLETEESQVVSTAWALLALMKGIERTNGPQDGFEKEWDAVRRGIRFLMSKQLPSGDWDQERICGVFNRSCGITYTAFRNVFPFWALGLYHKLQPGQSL
Assay: GC-MS of silylated sterols after incubation with purified enzyme
Format: biochemical
Details: 50 mM sodium phosphate pH 7.4, 25°C, 24 h; 10.7 μg substrate, 37.5-112.5 μg protein

| Compound | GC-MS of silylated sterols after incubation with purified enzyme |
| --- | --- |
| CC(C)=CCC/C(C)=C/CC/C(C)=C/CC/C=C(\C)CC/C=C(\C)CC[C@@H]1OC1(C)C [2,3-oxidosqualene] | These experiments confirmed the specific conversion of OS into LA. |
| CC(C)=CCC[C@@H](C)[C@H]1CC[C@@]2(C)C3=C(CC[C@]12C)[C@@]1(C)CC[C@H](O)C(C)(C)[C@@H]1CC3 [lanosterol] | the proportion of LA increased linearly with increasing protein concentration |
